Where two headings read alike, the source gives them in different places.
What was measured:
[1] = target: GDP-bound HRAS wild-type protein (Homo sapiens, UniProt P01112); assay: Binding to HRAS by surface plasmon resonance (SPR), Single Cycle Kinetics; conditions: for HRAS/KRAS (ratio of KD value with respect to GDP-bound HRAS wild-type protein to KD value with respect to KRAS): SPR KD ratio HRAS/KRAS, class symbols; for HRAS/KRAS (ratio of KD value for HRAS to KD value for KRAS): GDP-bound HRAS wild-type protein vs GDP-bound KRAS wild-type protein
[2] = tested on: human lung cancer strain NCI-H441;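 further: cell proliferation inhibition after four days measured by CellTiter-Glo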
[3] = target: GDP-bound NRAS wild-type protein (Homo sapiens, UniProt P01111); assay: Binding to NRAS by surface plasmon resonance (SPR), Single Cycle Kinetics; conditions: for NRAS/KRAS (ratio of KD value with respect to GDP-bound NRAS wild-type protein to KD value with respect to KRAS): SPR KD ratio NRAS/KRAS, class symbols; for NRAS/KRAS (ratio of KD value for NRAS to KD value for KRAS): GDP-bound NRAS wild-type protein vs GDP-bound KRAS wild-type protein
[4] = target: GDP-bound KRAS wild-type protein (Homo sapiens, UniProt P01116); assay: Binding to KRAS by surface plasmon resonance (SPR), Single Cycle Kinetics; conditions: GDP-bound KRAS wild-type protein, read-out: KRAS KD
[5] = SPR Single Cycle Kinetics, 1:1 binding model
[6] = SPR, Single Cycle Kinetics, 1:1 binding model

GDP-bound KRAS wild-type protein, sequence (P01116 whole entry): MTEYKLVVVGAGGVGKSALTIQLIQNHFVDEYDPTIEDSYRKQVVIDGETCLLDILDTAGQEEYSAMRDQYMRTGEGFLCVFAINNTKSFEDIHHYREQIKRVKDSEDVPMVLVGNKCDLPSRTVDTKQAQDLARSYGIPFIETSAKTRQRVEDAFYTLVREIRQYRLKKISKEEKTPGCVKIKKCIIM
GDP-bound HRAS wild-type protein, sequence (P01112 whole entry): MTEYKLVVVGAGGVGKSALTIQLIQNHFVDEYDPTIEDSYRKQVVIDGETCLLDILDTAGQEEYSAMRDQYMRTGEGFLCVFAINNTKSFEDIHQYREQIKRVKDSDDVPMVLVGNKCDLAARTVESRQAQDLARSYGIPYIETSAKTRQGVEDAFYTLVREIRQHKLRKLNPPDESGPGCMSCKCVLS
GDP-bound NRAS wild-type protein, sequence (P01111 whole entry): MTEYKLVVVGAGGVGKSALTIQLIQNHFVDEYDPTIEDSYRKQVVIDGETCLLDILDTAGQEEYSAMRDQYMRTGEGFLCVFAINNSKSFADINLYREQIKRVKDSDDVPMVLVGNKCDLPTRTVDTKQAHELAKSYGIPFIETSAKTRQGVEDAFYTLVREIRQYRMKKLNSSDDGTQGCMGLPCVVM

| SMILES | IC50 [2] [nM] | Kd [4, 5] [nM] | Kd [4, 6] [nM] | Kd ([4]; SPR, Single Cycle Kinetics) [nM] | HRAS/KRAS (ratio of KD value with respect to GDP-bound HRAS wild-type protein to KD value with respect to KRAS) [1] | NRAS/KRAS (ratio of KD value with respect to GDP-bound NRAS wild-type protein to KD value with respect to KRAS) [3] | HRAS/KRAS (ratio of KD value for HRAS to KD value for KRAS) ([1]; SPR, KD ratio class) | NRAS/KRAS (ratio of KD value for NRAS to KD value for KRAS) ([3]; SPR, KD ratio class) | HRAS/KRAS (ratio of KD value for HRAS to KD value for KRAS) ([1]; SPR) | NRAS/KRAS (ratio of KD value for NRAS to KD value for KRAS) ([3]; SPR) | other results |
| --- | --- | --- | --- | --- | --- | --- | --- | --- | --- | --- | --- |
| CCC[C@H]1C(=O)N[C@@H](CC(C)C)C(=O)N(CC)CC(=O)N(C)[C@H]2C/C=C\CCN(C2=O)[C@@H](Cc2ccc(C)cc2)C(=O)N(C)CC(=O)N[C@@H](CCc2ccc(C(F)(F)F)c(Cl)c2)C(=O)N2C[C@H](OCC)C[C@H]2C(=O)NC2(CCC2)C(=O)N(C)[C@@H](C2CCCC2)C(=O)N(C)[C@H](C(=O)N(C)C)CC(=O)N1C [PP2545] | 279 | 4.3 | – | – | A (a compound having 10 or more and less than 20 is denoted as A) | A (a compound having 10 or more and less than 20 is denoted as A) | – | – | – | – | – |
| CCO[C@@H]1C[C@H]2C(=O)NC3(CC(C)(C)C3)C(=O)N(C)[C@@H](C3CCCC3)C(=O)N(C)[C@H](C(=O)N3CCCCC3)CC(=O)N(C)[C@@H](COC)C(=O)N[C@@H]([C@@H](C)CC)C(=O)N(C3CC3)CC(=O)N(C)[C@H]3C/C=C\CCN(C3=O)[C@@H](Cc3ccc(C(F)(F)F)cc3)C(=O)N(C)CC(=O)N[C@@H](CCc3cc(F)c(C(F)(F)F)c(F)c3)C(=O)N2C1 [PP2666] | 28.6 | 0.72 | – | – | AA (a compound having 20 or more is denoted as AA) | AA (a compound having 20 or more is denoted as AA) | – | – | – | – | – |
| CCO[C@@H]1C[C@H]2C(=O)NC3(CCC3)C(=O)N(C)[C@@H](C3CCCC3)C(=O)N(C)[C@H](C(=O)N(C)C)CC(=O)N(C)[C@@H](Cc3ccc(F)c(F)c3)C(=O)N[C@@H]([C@@H](C)CC)C(=O)N(C)CC(=O)N(C)[C@H]3CCCCCN(C3=O)[C@@H](Cc3ccc(C(F)(F)F)cc3)C(=O)N(C)CC(=O)N[C@@H](CCc3cc(F)c(C(F)(F)F)c(F)c3)C(=O)N2C1 [PP0937] | 39 | – | – | 1 | – | – | – | – | B (a compound having 3 or more and less than 10 is denoted as B) | B (a compound having 3 or more and less than 10 is denoted as B) | – |
| C#CCN1CC(=O)N(C)[C@H]2C/C=C\CCN(C2=O)[C@@H](Cc2ccc(C)cc2)C(=O)N(C)CC(=O)N[C@@H](CCc2ccc(C(F)(F)F)c(OC)c2)C(=O)N2C[C@H](OCC)C[C@H]2C(=O)NC2(CC(C)(C)C2)C(=O)N(C)[C@@H](C2CCCC2)C(=O)N(C)[C@H](C(=O)N(C)C)CC(=O)N(C)[C@@H](CCC)C(=O)N[C@@H](CC(C)C)C1=O [PP2514] | 86.8 | – | – | 2.4 | – | – | – | – | B (a compound having 3 or more and less than 10 is denoted as B) | A (a compound having 10 or more and less than 20 is denoted as A) | – |
| CC[C@H](C)[C@@H]1NC(=O)[C@@H]2CCCCCc3ccc(cc3)C[C@@H](C(=O)N(C)CC(=O)N[C@@H](CCc3ccc(C(F)(F)F)c(OC)c3)C(=O)N3C[C@H](OC(C)C)C[C@H]3C(=O)NC3(CC(C)(C)C3)C(=O)N(C)[C@@H](C3CCCC3)C(=O)N(C)[C@H](C(=O)N(C)C)CC(=O)N2C)N2CC/C=C\C[C@@H](C2=O)N(C)C(=O)CN(C)C1=O [PP3072] | – | – | – | 0.048 | – | – | – | – | B (a compound having 3 or more and less than 10 is denoted as B) | A (a compound having 10 or more and less than 20 is denoted as A) | ratio of the KD value with respect to GDP-bound HRAS wild-type protein to the KD value with respect to KRAS ([1]; SPR, KD(HRAS)/KD(KRAS)): B (a compound having 3 or more and less than 10 is denoted as B); IC50 ([2]; read-out: NCI-H441 cell proliferation inhibitory activity, 50% proliferation inhibitory concentration (IC50 value), NCI-H441, four days, CellTiter-Glo): 2.6 nM; ratio of the KD value with respect to GDP-bound NRAS wild-type protein to the KD value with respect to KRAS ([3]; SPR, KD(NRAS)/KD(KRAS)): A (a compound having 10 or more and less than 20 is denoted as A) |
| CCO[C@@H]1C[C@H]2C(=O)NC3(CCCC3)C(=O)N(C)[C@@H](C3CCCC3)C(=O)N(C)[C@H](C(=O)N(C)C)CC(=O)N(C)[C@@H](CC)C(=O)N[C@@H]([C@@H](C)CC)C(=O)N(C)CC(=O)N(C)[C@H]3C[C@@H](C)[C@@H](C)CN(C3=O)[C@@H](Cc3ccc(C(F)(F)F)cc3)C(=O)N(C)CC(=O)N[C@@H](CCc3ccc(C(F)(F)F)c(Cl)c3)C(=O)N2C1 [PP1358] | 4.1 | – | 0.03 | – | – | – | B (a compound having 3 or more and less than 10 is denoted as B) | A (a compound having 10 or more and less than 20 is denoted as A) | – | – | – |

More lines, main results first:

| IC50 [2] [nM] | Kd [4, 5] [nM] | Kd [4, 6] [nM] | Kd ([4]; SPR, Single Cycle Kinetics) [nM] | SMILES | HRAS/KRAS (ratio of KD value with respect to GDP-bound HRAS wild-type protein to KD value with respect to KRAS) [1] | NRAS/KRAS (ratio of KD value with respect to GDP-bound NRAS wild-type protein to KD value with respect to KRAS) [3] | HRAS/KRAS (ratio of KD value for HRAS to KD value for KRAS) ([1]; SPR, KD ratio class) | NRAS/KRAS (ratio of KD value for NRAS to KD value for KRAS) ([3]; SPR, KD ratio class) | HRAS/KRAS (ratio of KD value for HRAS to KD value for KRAS) ([1]; SPR) | NRAS/KRAS (ratio of KD value for NRAS to KD value for KRAS) ([3]; SPR) | other results |
| --- | --- | --- | --- | --- | --- | --- | --- | --- | --- | --- | --- |
| 15.9 | – | 0.37 | – | CCO[C@@H]1C[C@H]2C(=O)NC3(CCC3)C(=O)N(C)[C@@H](C3CCCC3)C(=O)N(C)[C@H](C(=O)N(C)C)CC(=O)N(C)[C@@H](CC3CCCC3)C(=O)N[C@@H]([C@@H](C)CC)C(=O)N(C)CC(=O)N(C)[C@H]3C/C=C\CCN(C3=O)[C@@H](Cc3ccc(C(F)(F)F)cc3)C(=O)N(C)CC(=O)N[C@@H](CCc3cc(F)c(Cl)c(F)c3)C(=O)N2C1 [PP1264] | – | – | B (a compound having 3 or more and less than 10 is denoted as B) | A (a compound having 10 or more and less than 20 is denoted as A) | – | – | – |
| 140 | – | – | 0.21 | CC[C@H](C)[C@@H]1NC(=O)[C@H](CC)N(C)C(=O)C[C@@H](C(=O)N(C)C)N(C)C(=O)[C@H](C2CCCC2)N(C)C(=O)C2(CCC2)NC(=O)[C@H](COC)N(C)C(=O)[C@H](CCc2cc(F)c(C(F)(F)F)c(F)c2)NC(=O)CN(C)C(=O)[C@H](Cc2ccc(C(F)(F)F)cc2)N2CC/C=C\C[C@@H](C2=O)N(C)C(=O)CN(C)C1=O [PP1145] | – | – | – | – | B (a compound having 3 or more and less than 10 is denoted as B) | A (a compound having 10 or more and less than 20 is denoted as A) | – |
| 144 | – | 1.3 | – | CCO[C@@H]1C[C@H]2C(=O)NC3(CCC3)C(=O)N(C)[C@@H](C(CC)CC)C(=O)N(C)[C@H](C(=O)N(C)C)CC(=O)N(C)[C@@H](COC)C(=O)N[C@@H]([C@@H](C)CC)C(=O)N(C)CC(=O)N(C)[C@H]3C/C=C\CCN(C3=O)[C@@H](Cc3ccc(C(F)(F)F)cc3)C(=O)N(C)CC(=O)N[C@@H](CCc3ccc4sccc4c3)C(=O)N2C1 [PP1229] | – | – | A (a compound having 10 or more and less than 20 is denoted as A) | A (a compound having 10 or more and less than 20 is denoted as A) | – | – | – |
| 23.4 | 1.2 | – | – | CCO[C@@H]1C[C@H]2C(=O)NC3(CC(C)(C)C3)C(=O)N(C)[C@@H](C(CC)CC)C(=O)N(C)[C@H](C(=O)N(C)C)CC(=O)N(C)[C@@H](COC)C(=O)N[C@@H]([C@@H](C)CC)C(=O)N(C3CC3)CC(=O)N(C)[C@H]3C/C=C\CCN(C3=O)[C@@H](CC3CCC(F)(F)CC3)C(=O)N(C)CC(=O)N[C@@H](CCc3cc(F)c(C(F)(F)F)c(F)c3)C(=O)N2C1 [PP2568] | B (a compound having 3 or more and less than 10 is denoted as B) | A (a compound having 10 or more and less than 20 is denoted as A) | – | – | – | – | – |
| 20 | 0.43 | – | – | CCOC[C@H]1C(=O)N[C@@H]([C@@H](C)CC)C(=O)N(C2CC2)CC(=O)N(C)[C@H]2C/C=C\CCN(C2=O)[C@@H](Cc2ccc(C)cc2)C(=O)N(C)CC(=O)N[C@@H](CCc2ccc(C(F)(F)F)c(OC)c2)C(=O)N2C[C@H](OCC)C[C@H]2C(=O)NC2(CC(C)(C)C2)C(=O)N(C)[C@@H](CC(C)(C)C)C(=O)N(C)[C@H](C(=O)N(C)C)CC(=O)N1C [PP2724] | B (a compound having 3 or more and less than 10 is denoted as B) | A (a compound having 10 or more and less than 20 is denoted as A) | – | – | – | – | – |
| 33.4 | – | 0.42 | – | CCO[C@@H]1C[C@H]2C(=O)NC3(CCC3)C(=O)N(C)[C@@H](C(CC)CC)C(=O)N(C)[C@H](C(=O)N(C)C)CC(=O)N(C)[C@@H](CC)C(=O)N[C@@H]([C@@H](C)CC)C(=O)N(C)CC(=O)N(C)[C@H]3C/C=C\CCN(C3=O)[C@@H](Cc3ccc(C(F)(F)F)cc3)C(=O)N(C)CC(=O)N[C@@H](CCc3ccc(Cl)c(Cl)c3)C(=O)N2C1 [PP1215] | – | – | A (a compound having 10 or more and less than 20 is denoted as A) | AA (a compound having 20 or more is denoted as AA) | – | – | – |
